Data taken from patent US7892764B2, “System for seizure suppression” (priority 2006, dated 2011).

Assays:
[1] = system: acute hippocampal slices; test: Low Mg2+-induced injury of acute hippocampal slices, LDH release; format: cell-based; details: aCSF without Mg2+ plus 100 μM amiloride for 2 hr, medium collected 6 hr after incubation
Method: To determine whether ASIC blockade affects seizure-induced neuronal injury, we tested the effect of ASIC blockade on low Mg^2+-induced injury of acute hippocampal slices. 400 μm-thick coronal slices were cut and placed on a Millipore membrane in 6-well plates (2 slices in each well). Slices were randomly divided into three groups treated with the following different solutions (for 2 hr): oxygenated aCSF with normal Mg^2+; oxygenated aCSF without Mg^2+; oxygenated aCSF without Mg^2+ plus 100 μM amiloride. 100 μL medium was collected from each slice 6 hr following the incubation for the measurement of lactate dehydrogenase (LDH). The LDH value was then normalized to the maximal releasable LDH to give % of cell death. With aCSF containing normal Mg^2+, 6.2±0.9% of maximal LDH release was recorded. In the absence of Mg^2+, this value was increased to 13.0±2.2%. Addition of aniloride decreased relative LDH release to 6.0±0.4% (n=3).
LDH Assay. Lactate dehydrogenase (LDH) is a stable cytoplasmic enzyme present in all cells. […] LDH assays were performed using the Cytotoxicity Detection Kit (Cat#1644793, Roche Molecular Biochemicals) and a spectrophotometric mutiwell plate reader (SPECTRAmax, Molecular Devices). […] Absorbance at OD490 nm was measured 30 min after the reaction. Absorbance at a reference wavelength (OD620 nm) was subtracted from the measurement.

[2] = biological target: T1, ASICs (Mus musculus, UniProt Q6NXK8); test: Acid (pH 7.0/7.1)-induced membrane depolarization and neuronal firing, current-clamp recording; format: cell-based
T1 construct: Primary neuronal cultures were prepared from embryonic Swiss mice at 15 to 16 days of gestation; endogenous in cells
T1 sequence (Q6NXK8 1-526): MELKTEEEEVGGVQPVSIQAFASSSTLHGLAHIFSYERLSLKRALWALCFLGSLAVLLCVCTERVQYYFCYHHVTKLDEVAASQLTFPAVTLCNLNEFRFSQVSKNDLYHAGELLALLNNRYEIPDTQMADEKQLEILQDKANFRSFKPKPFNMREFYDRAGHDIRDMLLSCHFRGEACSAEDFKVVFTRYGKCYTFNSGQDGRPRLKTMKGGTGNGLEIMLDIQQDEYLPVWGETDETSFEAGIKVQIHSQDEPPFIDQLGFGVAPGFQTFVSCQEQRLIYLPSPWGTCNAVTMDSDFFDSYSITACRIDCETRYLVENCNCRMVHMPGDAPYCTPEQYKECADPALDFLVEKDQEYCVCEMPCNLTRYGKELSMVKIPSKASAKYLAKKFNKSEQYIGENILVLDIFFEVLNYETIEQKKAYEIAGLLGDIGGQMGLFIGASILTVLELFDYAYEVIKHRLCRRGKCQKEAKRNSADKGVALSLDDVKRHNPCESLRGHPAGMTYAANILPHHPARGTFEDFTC
Source text: Unlike ischemia, only moderate pH changes (e.g., ˜0.3 pH unit) are reported in brain parenchyma during seizures (Chesler et al., 1988: Chesler et al., 1992), although pH in the synaptic cleft may be much lower (Chesler et al., 1992; Wemmie et al., 2006). […] One possibility is that voltage-clamp recording has relatively low sensitivity to resolve small current in whole-cell configuration. To provide more evidence that the decreases of pHo to the level seen in epilepsy can indeed activate the ASICs and cause neuronal excitation, we have also used current-clamp recording to study changes of membrane depolarization and neuronal firing by small changes of pHo. Due to the large input resistance of most CNS neurons (e.g., ˜500 MΩ), even a small membrane current (e.g., 10-20 pA, which is difficult to resolve in voltage-clamp recording in general) can induce significant membrane depolarization in current-clamp conditions. Mouse cortical neurons were used for current-clamp recordings 14 days after the culture.
Cortical neuronal culture. Primary neuronal cultures were prepared from embryonic Swiss mice at 15 to 16 days of gestation according to our previously described techniques (Xiong et al., 2004). In brief, cerebral cortices from 10 to 12 embryos were dissected and incubated with 0.05% trypsin-EDTA for 10 min, dissociated by trituration with a fire-polished glass pipette, and plated on poly-L-ornithine-coated culture dishes at a density of 0.5×10^6 cells per dish. Neurons were cultured with Neurobasal medium supplemented with B27 (Invitrogen). The cultures were maintained at 37° C. in a humidified 5% CO2 atmosphere incubator and were used for experiments after 12-14 days.
Patch clamp techniques. Whole-cell voltage-clamp and current-clamp recordings were performed as described in our previous studies (Xiong et al., 2004). […] Whole-cell currents were recorded using Axopatch 200B amplifiers with pCLAMP software (Axon Instruments, CA, USA). […]

Molecule | relative LDH release (% of maximal releasable LDH, cell death) [1] [%] | effect on acid-induced neuronal excitation (membrane depolarization, firing rate) ([2]; pH 7.0, amiloride 100 μM or synthetic PcTX1 20 nM) | effect on acid-induced depolarization and firing of action potentials ([2]; pH 7.1)
NC(N)=NC(=O)c1nc(Cl)c(N)nc1N [amiloride, 3,5-diamino-6-chloro-N(diaminomethylidene)pyrazine-2-carboxamide] | 6.0±0.4 | largely and significantly reduced | –
Psalmotoxin 1 [PcTX1] | – | – | sensitive to PcTX1 inhibition
